Numbers after ± are expanded uncertainties.
Assay: mn = molality of the nth substance listed, in mol/kg
Settings: 350 kPa, Liquid, Extra sensitive DSC

OC[C@H]1O[C@@](CO)(O[C@H]2O[C@H](CO)[C@@H](O)[C@H](O)[C@H]2O)[C@@H](O)[C@@H]1O [D-sucrose] + O
apparent molar heat capacity (323.15 K, m1 = 0.01461): 722.3 ± 71 J/K/mol
apparent molar heat capacity (323.15 K, m1 = 0.03048): 722.4 ± 35 J/K/mol
apparent molar heat capacity (323.15 K, m1 = 0.06172): 723.4 ± 18 J/K/mol
apparent molar heat capacity (323.15 K, m1 = 0.1302): 723.1 ± 9.9 J/K/mol
apparent molar heat capacity (323.15 K, m1 = 0.2486): 723 ± 6.2 J/K/mol
apparent molar heat capacity (323.15 K, m1 = 0.4969): 722.6 ± 4.2 J/K/mol
apparent molar heat capacity (323.15 K, m1 = 0.746): 722 ± 3.5 J/K/mol
apparent molar heat capacity (323.15 K, m1 = 0.9972): 722.7 ± 3.2 J/K/mol
apparent molar heat capacity (323.15 K, m1 = 1.489): 721 ± 2.8 J/K/mol
apparent molar heat capacity (323.15 K, m1 = 1.99): 720.7 ± 2.7 J/K/mol
apparent molar heat capacity (323.15 K, m1 = 2.99): 720.3 ± 2.5 J/K/mol
apparent molar heat capacity (323.15 K, m1 = 3.995): 720.8 ± 2.4 J/K/mol
apparent molar heat capacity (328.15 K, m1 = 0.01461): 735.7 ± 71 J/K/mol
apparent molar heat capacity (328.15 K, m1 = 0.03048): 735.3 ± 35 J/K/mol
apparent molar heat capacity (328.15 K, m1 = 0.06172): 735.9 ± 18 J/K/mol
apparent molar heat capacity (328.15 K, m1 = 0.1302): 735.3 ± 9.9 J/K/mol
apparent molar heat capacity (328.15 K, m1 = 0.2486): 735.1 ± 6.2 J/K/mol
apparent molar heat capacity (328.15 K, m1 = 0.4969): 734.6 ± 4.2 J/K/mol
apparent molar heat capacity (328.15 K, m1 = 0.746): 733.9 ± 3.6 J/K/mol
apparent molar heat capacity (328.15 K, m1 = 0.9972): 734.3 ± 3.2 J/K/mol
apparent molar heat capacity (328.15 K, m1 = 1.489): 732.5 ± 2.9 J/K/mol
apparent molar heat capacity (328.15 K, m1 = 1.99): 731.9 ± 2.7 J/K/mol
apparent molar heat capacity (328.15 K, m1 = 2.99): 730.9 ± 2.5 J/K/mol
apparent molar heat capacity (328.15 K, m1 = 3.995): 731.1 ± 2.5 J/K/mol
apparent molar heat capacity (333.15 K, m1 = 0.01461): 746.9 ± 71 J/K/mol
apparent molar heat capacity (333.15 K, m1 = 0.03048): 746.6 ± 35 J/K/mol
apparent molar heat capacity (333.15 K, m1 = 0.06172): 747 ± 18 J/K/mol
apparent molar heat capacity (333.15 K, m1 = 0.1302): 746.5 ± 9.9 J/K/mol
apparent molar heat capacity (333.15 K, m1 = 0.2486): 746.2 ± 6.3 J/K/mol
apparent molar heat capacity (333.15 K, m1 = 0.4969): 745.4 ± 4.3 J/K/mol
apparent molar heat capacity (333.15 K, m1 = 0.746): 744.6 ± 3.6 J/K/mol
apparent molar heat capacity (333.15 K, m1 = 0.9972): 745 ± 3.2 J/K/mol
apparent molar heat capacity (333.15 K, m1 = 1.489): 742.9 ± 2.9 J/K/mol
apparent molar heat capacity (333.15 K, m1 = 1.99): 742.1 ± 2.7 J/K/mol
apparent molar heat capacity (333.15 K, m1 = 2.99): 740.7 ± 2.6 J/K/mol
apparent molar heat capacity (333.15 K, m1 = 3.995): 740.5 ± 2.5 J/K/mol
apparent molar heat capacity (338.15 K, m1 = 0.01461): 756.6 ± 71 J/K/mol
apparent molar heat capacity (338.15 K, m1 = 0.03048): 757.3 ± 35 J/K/mol
apparent molar heat capacity (338.15 K, m1 = 0.06172): 757.4 ± 18 J/K/mol
apparent molar heat capacity (338.15 K, m1 = 0.1302): 756.8 ± 10 J/K/mol
apparent molar heat capacity (338.15 K, m1 = 0.2486): 756.4 ± 6.3 J/K/mol
apparent molar heat capacity (338.15 K, m1 = 0.4969): 755.6 ± 4.3 J/K/mol
apparent molar heat capacity (338.15 K, m1 = 0.746): 754.7 ± 3.6 J/K/mol
apparent molar heat capacity (338.15 K, m1 = 0.9972): 754.9 ± 3.3 J/K/mol
apparent molar heat capacity (338.15 K, m1 = 1.489): 752.7 ± 2.9 J/K/mol
apparent molar heat capacity (338.15 K, m1 = 1.99): 751.7 ± 2.8 J/K/mol
apparent molar heat capacity (338.15 K, m1 = 2.99): 750 ± 2.6 J/K/mol
apparent molar heat capacity (338.15 K, m1 = 3.995): 749.3 ± 2.5 J/K/mol
apparent molar heat capacity (343.15 K, m1 = 0.01461): 765.9 ± 71 J/K/mol
apparent molar heat capacity (343.15 K, m1 = 0.03048): 766.2 ± 35 J/K/mol
apparent molar heat capacity (343.15 K, m1 = 0.06172): 766.8 ± 18 J/K/mol
apparent molar heat capacity (343.15 K, m1 = 0.1302): 766.3 ± 10 J/K/mol
apparent molar heat capacity (343.15 K, m1 = 0.2486): 766 ± 6.3 J/K/mol
apparent molar heat capacity (343.15 K, m1 = 0.4969): 765.2 ± 4.3 J/K/mol
apparent molar heat capacity (343.15 K, m1 = 0.746): 764.2 ± 3.6 J/K/mol
apparent molar heat capacity (343.15 K, m1 = 0.9972): 764.2 ± 3.3 J/K/mol
apparent molar heat capacity (343.15 K, m1 = 1.489): 762 ± 3 J/K/mol
apparent molar heat capacity (343.15 K, m1 = 1.99): 760.8 ± 2.8 J/K/mol
apparent molar heat capacity (343.15 K, m1 = 2.99): 759 ± 2.6 J/K/mol
apparent molar heat capacity (343.15 K, m1 = 3.995): 758 ± 2.5 J/K/mol
apparent molar heat capacity (348.15 K, m1 = 0.01461): 774.3 ± 71 J/K/mol
apparent molar heat capacity (348.15 K, m1 = 0.03048): 775.2 ± 35 J/K/mol
apparent molar heat capacity (348.15 K, m1 = 0.06172): 775.7 ± 18 J/K/mol
apparent molar heat capacity (348.15 K, m1 = 0.1302): 775.1 ± 10 J/K/mol
apparent molar heat capacity (348.15 K, m1 = 0.2486): 774.7 ± 6.4 J/K/mol
apparent molar heat capacity (348.15 K, m1 = 0.4969): 774 ± 4.3 J/K/mol
apparent molar heat capacity (348.15 K, m1 = 0.746): 772.8 ± 3.7 J/K/mol
apparent molar heat capacity (348.15 K, m1 = 0.9972): 772.7 ± 3.3 J/K/mol
apparent molar heat capacity (348.15 K, m1 = 1.489): 770.4 ± 3 J/K/mol
apparent molar heat capacity (348.15 K, m1 = 1.99): 769.1 ± 2.8 J/K/mol
apparent molar heat capacity (348.15 K, m1 = 2.99): 767 ± 2.6 J/K/mol
apparent molar heat capacity (348.15 K, m1 = 3.995): 765.8 ± 2.6 J/K/mol
apparent molar heat capacity (353.15 K, m1 = 0.01461): 781.7 ± 71 J/K/mol
apparent molar heat capacity (353.15 K, m1 = 0.03048): 783.6 ± 35 J/K/mol
apparent molar heat capacity (353.15 K, m1 = 0.06172): 784 ± 19 J/K/mol
apparent molar heat capacity (353.15 K, m1 = 0.1302): 783.3 ± 10 J/K/mol
apparent molar heat capacity (353.15 K, m1 = 0.2486): 783 ± 6.4 J/K/mol
apparent molar heat capacity (353.15 K, m1 = 0.4969): 782.2 ± 4.4 J/K/mol
apparent molar heat capacity (353.15 K, m1 = 0.746): 780.9 ± 3.7 J/K/mol
apparent molar heat capacity (353.15 K, m1 = 0.9972): 780.7 ± 3.4 J/K/mol
apparent molar heat capacity (353.15 K, m1 = 1.489): 778.3 ± 3 J/K/mol
apparent molar heat capacity (353.15 K, m1 = 1.99): 777 ± 2.8 J/K/mol
apparent molar heat capacity (353.15 K, m1 = 2.99): 774.6 ± 2.7 J/K/mol
apparent molar heat capacity (353.15 K, m1 = 3.995): 773.2 ± 2.6 J/K/mol
apparent molar heat capacity (358.15 K, m1 = 0.01461): 791 ± 71 J/K/mol
apparent molar heat capacity (358.15 K, m1 = 0.03048): 791.1 ± 35 J/K/mol
apparent molar heat capacity (358.15 K, m1 = 0.06172): 791.9 ± 19 J/K/mol
apparent molar heat capacity (358.15 K, m1 = 0.1302): 791.1 ± 10 J/K/mol
apparent molar heat capacity (358.15 K, m1 = 0.2486): 790.6 ± 6.4 J/K/mol
apparent molar heat capacity (358.15 K, m1 = 0.4969): 789.8 ± 4.4 J/K/mol
apparent molar heat capacity (358.15 K, m1 = 0.746): 788.4 ± 3.7 J/K/mol
apparent molar heat capacity (358.15 K, m1 = 0.9972): 788.2 ± 3.4 J/K/mol
apparent molar heat capacity (358.15 K, m1 = 1.489): 785.7 ± 3 J/K/mol
apparent molar heat capacity (358.15 K, m1 = 1.99): 784.3 ± 2.9 J/K/mol
apparent molar heat capacity (358.15 K, m1 = 2.99): 781.7 ± 2.7 J/K/mol
apparent molar heat capacity (358.15 K, m1 = 3.995): 780 ± 2.6 J/K/mol
apparent molar heat capacity (363.15 K, m1 = 0.01461): 797.3 ± 71 J/K/mol
apparent molar heat capacity (363.15 K, m1 = 0.03048): 797.3 ± 35 J/K/mol
apparent molar heat capacity (363.15 K, m1 = 0.06172): 798 ± 19 J/K/mol
apparent molar heat capacity (363.15 K, m1 = 0.1302): 797.4 ± 10 J/K/mol
apparent molar heat capacity (363.15 K, m1 = 0.2486): 797.1 ± 6.4 J/K/mol
apparent molar heat capacity (363.15 K, m1 = 0.4969): 796.6 ± 4.4 J/K/mol
apparent molar heat capacity (363.15 K, m1 = 0.746): 795.1 ± 3.7 J/K/mol
apparent molar heat capacity (363.15 K, m1 = 0.9972): 794.7 ± 3.4 J/K/mol
apparent molar heat capacity (363.15 K, m1 = 1.489): 792.3 ± 3.1 J/K/mol
apparent molar heat capacity (363.15 K, m1 = 1.99): 790.9 ± 2.9 J/K/mol
apparent molar heat capacity (363.15 K, m1 = 2.99): 788.1 ± 2.7 J/K/mol
apparent molar heat capacity (363.15 K, m1 = 3.995): 786.3 ± 2.6 J/K/mol
